Data from patent publication US11654036B2, “Anticoagulant compounds and methods and devices for their use” (priority 2020, dated 2023).
Where two headings read alike, the source gives them in different places.

Experiments:
[1] = system: Calcium-reconstituted sheep blood; experiment: Activated clotting time (ACT); conditions: individual drug at 0.6 ng/mg
Experimental: The activated clotting time (ACT) evaluation of anticoagulants was performed in Calcium-reconstituted sheep blood and recorded employing the Hemochron® Response device. […] A target amount of drug solution was then added into the test tube. […] The tube was gently shaken before being inserted into the Hemochron Response detector. The ACT read out was recorded and reported. The ACT of the control blood in the absence of any drug as first determined to establish a baseline. Then ACT was determined in the presence of different concentrations of the drug as a single component. Selected drug combinations, were then tested to evaluate for potential synergy in action between the two drugs.

[2] = system: Tissue factor generated antiplatelet; conditions: cited from earlier work
[3] = Tissue drug concentration in stented and adjacent artery segments (LCMS); format: in vivo, porcine; conditions: pig, artery tissue adjacent to the stented segment, other: drug eluting stent implanted in coronary artery, Table 4B, stent arm not named; for concentration at 90 days: within 90 days; for concentration at 3 h: within 3 hours; for concentration at 28 days: within 28 days
Description: The stented artery was cut longitudinally with surgical scissors. The stents were separated from the tissue.

[4] = system: Human Aortic SMC (HAoSMC); experiment: HAoSMC cell proliferation assay; format: cell-based; conditions: 72 hours incubation
Experimental: Cell proliferation assay was done in 96-well format. Low passage cells were trypsinized and seeded in 96 well plates at a density of ˜4000 cells/well. The cells are allowed to attach overnight in a CO2 incubator. Next day, the medium was removed and replaced with fresh complete medium containing various concentrations of the test compounds. The final concentration of vehicle (DMSO) in the test medium was 0.1%. After adding test compounds, the cells were incubated for 72 hours. Following this period, the medium was removed and then added fresh medium (100 μl) containing CellTiter Aqueous (lx concentration final) to the wells and incubated for 2 hours in the CO2 incubator. At the end of incubation measured fluorescence with a plate-reader. Controlled incubations with untreated cells and blank incubations containing only medium were included and tested similarly. Based on the cell viability assay the percentage inhibition of the cell proliferation was determined at the different concentrations of the drug tested.

[5] = Coated balloon tissue concentration in vivo (Table 7); parameters: species or system porcine; conditions: for concentration at 15 min: 300 μg
Description: The balloon (e.g., the balloon of a balloon-catheter of a stent-delivery system) was advanced to a site to be treated (e.g., an occluded or weakened section of a blood vessel to be opened up or supported by a stent) in the body of a subject and inflated to a desired inflation diameter. Before, during, and/or after inflation of the balloon, the balloon released the therapeutic composition to, into, or at the treatment site, or to, into, or at an area adjacent thereto, by any suitable mechanism (e.g., concentration gradient, diffusion, pressure, or mechanical force, or a combination thereof). […] The tissue concentration is shown in ng/mg tissue. The coated balloons were evaluated for drug delivery efficiency in an animal study. Drug transfer of the coated balloons into arterial segments were evaluated using harvested pig arteries. The arterial wall was separated after animal study. The arterial walls were then stored in an individual labeled vial. All samples were kept on dry ice until stored in the −80° C. freezer. All samples were then frozen to […] prior to being analyzed.

Structure (SMILES)	concentration at 3 h [3]	concentration at 28 days [3]	ACT [1]	IC50 [2]	IC50 for Tissue factor generated antiplatelet [2]	concentration at 90 days [3]	also measured
COc1ccc(-n2nc(C(N)=O)c3c2C(=O)N(c2ccc(N4CCCCC4=O)cc2)CC3)cc1 [Apixaban]			522				
CC1CNc2c(cccc2S(=O)(=O)N[C@@H](CCCNC(=N)N)C(=O)N2CC[C@@H](C)C[C@@H]2C(=O)O)C1 (some centres unmarked) [Argatroban]			301	79 nM	0.04 ng/mg	~3740 ng/g	HAoSMC proliferation inhibition [4]: small to no inhibition
CO[C@@H]1C[C@H](C[C@@H](C)[C@@H]2CC(=O)[C@H](C)/C=C(\C)[C@@H](O)[C@@H](OC)C(=O)[C@H](C)C[C@H](C)/C=C/C=C/C=C(\C)[C@@H](O)C[C@@H]3CC[C@@H](C)[C@@](O)(O3)C(=O)C(=O)N3CCCC[C@H]3C(=O)O2)CC[C@H]1O [Novolimus, 16-O-desmethyl-rapamycin]							tissue concentration of tissue adjacent to the balloon treated segment ([5]; Superficial Femoral Artery (SFA) tissue, within or at 6 hours): at least 5.94 ng/mg; tissue concentration of tissue adjacent to the balloon treated segment ([5]; Superficial Femoral Artery (SFA) tissue, within or at 3 day): at least 4.4 ng/mg; tissue concentration of tissue adjacent to the balloon treated segment ([5]; Superficial Femoral Artery (SFA) tissue, within or at 7 days): at least 1.16 ng/mg; tissue concentration of tissue adjacent to the balloon treated segment ([5]; coronary artery tissue, within or at 6 hours): at least 6.52 ng/mg; tissue concentration of tissue adjacent to the balloon treated segment ([5]; coronary artery tissue, within or at 3 day): at least 3.77 ng/mg; tissue concentration of tissue adjacent to the balloon treated segment ([5]; coronary artery tissue, within or at 7 days): at least 1.47 ng/mg
O=C(NC[C@H]1CN(c2ccc(N3CCOCC3=O)cc2)C(=O)O1)c1ccc(Cl)s1 [Rivaroxaban]	~21000 ng/g	~340 ng/g		312 nM	0.136 ng/mg		concentration at 15 min ([5]; pig, Superficial Femoral Artery (SFA) tissue, within or at 15 minutes, read-out: tissue concentration of tissue adjacent to the balloon treated segment): ≥ 40600 ng/g; concentration at 15 min ([5]; pig, coronary artery tissue, within or at 15 min, read-out: tissue concentration of tissue adjacent to the balloon treated segment): ≥ 1230 ng/g; concentration at 1 h ([3]; within one hour from injury and/or implant): ~38000 ng/g
CO[C@H]1C[C@@H]2CC[C@@H](C)[C@@](O)(O2)C(=O)C(=O)N2CCCC[C@H]2C(=O)O[C@H]([C@H](C)C[C@@H]2CC[C@@H](O)[C@H](OC)C2)CC(=O)[C@H](C)/C=C(\C)[C@@H](O)[C@@H](OC)C(=O)[C@H](C)C[C@H](C)/C=C/C=C/C=C/1C [Sirolimus, rapamycin (also called sirolimus)]	~27000 ng/g	~940 ng/g				~1280 ng/g	concentration at 7 days ([5]; pig, coronary artery tissue, within or at 7 days, read-out: tissue concentration of tissue adjacent to the balloon treated segment): ≥ 1450 ng/g
